# Data taken from patent US20080182853A1, “Methods of neuroprotection by cyclin-dependent kinase inhibition” (priority 2006, published 2008).
# Key:
# cortical neurons [1] = test system: cortical neurons
# Experimental: Treatment with 1 μM PD 0332991 (obtained from Pfizer) was carried out for 12 h in complete medium; H2O2 was added at the indicated times and doses.
# Analysis of neuronal survival and apoptosis. Neuronal viability was assessed by quantifying apoptotic nuclei following the treatments. Cells were fixed and stained with DNA-binding dye propidium iodide (PI) (10 μg/ml; Sigma), and the percentage of cells with apoptotic nuclei was calculated as described previously (Kruman, I. I., et al. 2002. J. Neurosci. 22:1752-1762; Tenneti, L. and S. A. Lipton. 2000. J Neurochem. 74:134-142). Nuclear staining was viewed and photographed using a Zeiss fluorescence microscope. Apoptosis was also determined by immunoblot analysis for activated (cleaved) caspase-3 (polyclonal; 1 μg/ml; Upstate Cell Signaling Solutions), cleaved Mcm3 (polyclonal, 1:200; Santa-Cruz), Mcm2 (BM28; monoclonal; 1:200; BD Biosciences), and fractin (cleaved β-actin; 1:3000; Chemicon) in cellular extracts from corresponding neuronal 5 cultures.
# cortical neurons [2] = settings: 5 μM H2O2, 6 h; neutral comet assay; FIG. 2A
# Experimental: Single Cell Gel Electrophoresis (Comet assay). DNA damage was assessed using the alkaline or neutral single-cell gel electrophoresis (comet assay) method (Kruman, I. I., et al. 2004. Neuron. 41:549-561; Kruman, I. I., et al. 2002. J Neurosci. 22:1752-176229). We used the neutral comet assay which is specific for detecting DSBs (Wojewodzka, M., et al. 2002. Mutat Res. 518:9-20). Following treatment, neurons were scraped and cell suspensions (˜10,000 cells) were embedded into 0.5% low melting agarose on slides (Trevigen, Gaithersburg, Md.). After treatment with cold lysis buffer (Trevigen) containing 1% Triton X-100 and 10% DMSO, the slides were incubated for 1 h in freshly prepared electrophoresis buffer, 300 mM sodium acetate, 100 mM Tris HCl, pH 8.3 (neutral comet assay) or 300 mM NaOH, 1 mM EDTA, pH>13 (alkaline comet assay). Then electrophoresis was performed at 14V and 60 mA for 1 h (neutral comet assay) or at 25V and 300 mA for 30 min (alkaline comet assay) at 8° C., stained with SYBR green (Trevigen), and analyzed using an Olympus BX51 fluorescent microscope and the comet assay image analysis software (Loats Associates Inc.). […] Images of 50 randomly selected cells were analysed from each slide. […]
# primary cortical neurons = assay: H2O2-induced apoptosis in cultured cortical neurons (apoptotic nuclei count); assay type: cell-based, rat; settings: 12 h pretreatment with 1 μM PD 0332991, then 100 μM H2O2 for 18 h; Hoechst 33342; FIG. 4B
# Experimental: All experiments involving the use of animals were approved by the IACUC at the Georgetown University Medical Center, Washington, D.C. Primary cortical cell cultures were established from E18 Sprague-Dawley rats obtained from Jackson Laboratories.
# Following dissociation by mild trypsinization and trituration, cells were seeded onto plastic dishes or chamber slides precoated with 0.025 μg/ml poly-L-lysine, at a density of 1.3×10^3 neurons/mm^2 in Neurobasal medium containing B-27 supplement, 1 mM HEPES, 2 mM […] and 0.001% gentamycin sulfate; fresh medium was replaced after 30 minutes.
# Analysis of neuronal survival and apoptosis.
# CDK4 and CDK6 = settings: Fry et al. 2004; cited from earlier work
# tumor = settings: mice; cited from earlier work
# pRb phosphorylation = pRb phosphorylation by Western blot in cortical neurons; assay type: cell-based, rat; settings: 12 h pretreatment with 1 μM PD 0332991, then 100 μM H2O2 for 6 h; FIG. 4A
# Experimental: Immunoblot analyses. For total cell lysates, cortical neurons were lysed in ice-cold buffer consisting of 63 mM Tris, 2 mM EDTA, 2 mM EGTA, 2% sodium dodecyl sulfate, 10% glycerol, and a protease inhibitor cocktail (Sigma), pH 6.0. For the preparation of nuclear lysates (for analysis of cyclin D1 and γ-H2AX), cortical neurons were lysed in ice-cold buffer containing protease inhibitor cocktail (Sigma) and incubated with hydrochloric acid (0.2 M) on ice for 30 min.
# As a loading control we used anti-β-actin or anti-glyceraldehyde-3-phosphate dehydrogenase (GAPDH) antibodies.
# Protein bands were visualized with horseradish peroxidase-conjugated secondary antibodies (1:3000; Jackson Immunological Research Laboratories Inc.) and enhanced using chemiluminescence (ECL kit, Amersham Corp.). Densitometric analysis of the blots were performed using the Kodak software ID 3.5.3 USB, and the intensity of the signal (normalized to the β-actin signals) was expressed as a ratio of the control signals.
# ischemia models = settings: in vivo; cited from earlier work
# neuronal apoptosis = settings: in vitro; cited from earlier work
compound,measurement,setting,value
"OO [H2O2, hydrogen peroxide]",apoptosis of cortical neurons,"cortical neurons [1]; 5 μM H2O2, by 24 h or 48 h",did not induce apoptosis
same,apoptotic death of cortical neurons,"cortical neurons [1]; 100 μM H2O2, FIG. 1",significant apoptotic death beginning by 9 h
same,DNA damage (comet tails),cortical neurons [2],significant increase of DNA damage
CC(=O)c1c(C)c2cnc(Nc3ccc(N4CCNCC4)cn3)nc2n(C2CCCC2)c1=O [PD 0332991],extent of apoptosis,primary cortical neurons,significant reduction in the extent of apoptosis
same,specificity as inhibitor of CDK4 and CDK6,CDK4 and CDK6,highly specific inhibitor of CDK4 and CDK6
same,tumor regression,tumor,effective in causing tumor regression in mice
same,phosphorylation of pRb,pRb phosphorylation,down-regulates phosphorylation of pRb
CN1CC[C@H](c2c(O)cc(O)c3c(=O)cc(-c4ccccc4Cl)oc23)[C@H](O)C1 [flavopiridol],protection in ischemia models,ischemia models,protective
same,prevention of neuronal apoptosis,neuronal apoptosis,very potent in preventing neuronal apoptosis in vitro
